Results on 22 compounds are retold here after PubChem BioAssay (NCI).

Test systems include KM20L2 colon; ACHN renal; SNB-78 CNS; OVCAR-8 ovarian; HCC-2998 colon; TK-10 renal; UACC-257 melanoma; KM12 colon; HT29 colon; CAKI-1 renal; MDA-N.
What all share (test): NCI-60 cell line screen, 48 h

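Following 48 hours of exposure in 96-well plates, responses at five concentrations were used to interpolate endpoints linearly. TGI denotes the concentration required for complete inhibition of growth.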 A value given as a limit tells only on which side of the number the result lay.

In the case of `CN(C)CCNC(=O)Cc1ccccc1Nc1c(Cl)cccc1Cl`, the TGI in the experiment with KM20L2 colon was 13.9 µM; in the experiment with ACHN renal it was 33.3 µM; with SNB-78 CNS it was 38.7 µM; in the experiment on OVCAR-8 ovarian it was 37.1 µM; with HCC-2998 colon, 24.7 µM; with TK-10 renal it was 27.2 µM. Moreover, the TGI with UACC-257 melanoma was found to be 29.1 µM; in the experiment on KM12 colon it was 35.7 µM; with HT29 colon, 23.5 µM.

In the case of `Nc1c(S(=O)(=O)c2ccc(Cl)cc2)c2nc3ccccc3nc2n2ccnc12`, the TGI was over 100 µM in the experiment with ACHN renal; over 100 µM in the experiment with SNB-78 CNS; over 100 µM in the experiment with OVCAR-8 ovarian; over 100 µM in the experiment on HCC-2998 colon; 78.2 µM in the experiment on TK-10 renal; over 100 µM in the experiment with UACC-257 melanoma. Moreover, the TGI in the experiment with KM12 colon and with HT29 colon was over 100 µM throughout.

Turning to `Cc1cc(N(C)C)c2ccccc2[n+]1CCCCCCCCCC[n+]1c(C)cc(N(C)C)c2ccccc21`, the TGI is 20 µM in the experiment on CAKI-1 renal; 6.34 µM with ACHN renal; 2.73 µM with MDA-N; 16 µM in the experiment on OVCAR-8 ovarian; 13.5 µM in the experiment on HCC-2998 colon; 18 µM with TK-10 renal. Further, the TGI in the experiment with UACC-257 melanoma is 2.3 µM; in the experiment on KM12 colon, 1.61 µM; in the experiment on HT29 colon it was over 35 µM.

Take `Nc1ncnc2c1ccn2C/C=C/CO`: the TGI in the experiment with CAKI-1 renal, with ACHN renal, in the experiment on MDA-N, in the experiment on OVCAR-8 ovarian, with HCC-2998 colon and in the experiment on TK-10 renal was over 100 µM in each case. In addition, the TGI in the experiment with UACC-257 melanoma, with KM12 colon and in the experiment with HT29 colon was over 100 µM throughout.

For the compound `COc1ccc(NC(=O)CSc2nnc(-c3ccc(NC(C)=O)cc3)o2)cc1`, the TGI in the experiment with KM20L2 colon is 36.8 µM; in the experiment on ACHN renal it was 31.1 µM; with SNB-78 CNS, 44 µM; with OVCAR-8 ovarian, 36.6 µM; in the experiment on HCC-2998 colon, 35.4 µM; in the experiment with TK-10 renal, 41.2 µM. The TGI was determined as 41.7 µM with UACC-257 melanoma, 30 µM in the experiment on KM12 colon and 25.2 µM with HT29 colon.

Regarding `CCOC(=O)c1c2cccccc-2nc1Nc1cccc2c(C)ccnc12`, the TGI with CAKI-1 renal, in the experiment with ACHN renal, with MDA-N, with OVCAR-8 ovarian, in the experiment with HCC-2998 colon and with TK-10 renal was over 10 µM in each case. Besides, the TGI in the experiment with UACC-257 melanoma, with KM12 colon and with HT29 colon was over 10 µM in each case.

In the case of `COc1cc(Nc2ccc3c(c2)CCC3)nc(OC)n1`, the TGI is over 100 µM in the experiment on CAKI-1 renal; 73.7 µM with ACHN renal; over 100 µM in the experiment on MDA-N; over 100 µM in the experiment with OVCAR-8 ovarian; 61.6 µM in the experiment with HCC-2998 colon; over 100 µM with TK-10 renal. Besides, the TGI in the experiment on UACC-257 melanoma is over 100 µM; in the experiment on KM12 colon, 91.9 µM; in the experiment on HT29 colon it was 51.4 µM.

As to `CO/N=C(/C(=O)OC)c1ccccc1COc1ccccc1C(F)(F)F`, the TGI in the experiment with CAKI-1 renal, in the experiment on ACHN renal, with MDA-N, in the experiment on OVCAR-8 ovarian, in the experiment on HCC-2998 colon and in the experiment on TK-10 renal was over 100 µM each time. Further, the TGI with UACC-257 melanoma is 88.7 µM; with KM12 colon, over 100 µM; in the experiment on HT29 colon, over 100 µM.

With `COc1ccc(C(=O)NCCN(C)C)c2nc3ccccc3cc12`, the TGI in the experiment on CAKI-1 renal came to 7.59 µM; with ACHN renal, 2.5 µM; in the experiment with MDA-N, 4.38 µM; with OVCAR-8 ovarian, 4.67 µM; in the experiment with HCC-2998 colon, 8.34 µM; in the experiment with TK-10 renal, 5.42 µM. Moreover, the TGI was 4.02 µM in the experiment with UACC-257 melanoma, 7.79 µM with KM12 colon and 5.6 µM with HT29 colon.

For `CC(C)(C)OC(=O)NC(CSSCC(NC(=O)OC(C)(C)C)C(=O)O)C(=O)O` (stereo unspecified), the TGI in the experiment on CAKI-1 renal, in the experiment on ACHN renal, with MDA-N, with OVCAR-8 ovarian, in the experiment on HCC-2998 colon and in the experiment on TK-10 renal was over 100 µM each time. Also, the TGI in the experiment on UACC-257 melanoma, with KM12 colon and in the experiment with HT29 colon was over 100 µM in each case.

Take `O=C(NN1C(=O)CS(=O)(=O)C1c1ccc(C(F)(F)F)cc1)c1ccncc1` (stereo unspecified): the TGI in the experiment on CAKI-1 renal, with ACHN renal, in the experiment on SNB-78 CNS, with HCC-2998 colon, in the experiment on TK-10 renal and in the experiment with UACC-257 melanoma was over 100 µM each time. The TGI with KM12 colon and in the experiment with HT29 colon was over 100 µM throughout.

With `CC(C)N1CCN(c2ccc(OCC3COC(Cn4cncn4)(c4ccc(Cl)cc4Cl)O3)cc2)CC1` (stereo unspecified), the TGI with CAKI-1 renal is 40.3 µM; in the experiment with ACHN renal it was 47.1 µM; with MDA-N it was 16.6 µM; with OVCAR-8 ovarian, 39.2 µM; in the experiment on HCC-2998 colon, 21.1 µM; in the experiment on TK-10 renal, 26.1 µM. Besides, the TGI turned out to be 3.77 µM in the experiment with UACC-257 melanoma, 28.8 µM in the experiment on KM12 colon and 13.4 µM in the experiment with HT29 colon.

Take `CC(C(=O)COCc1ccccc1)P1(=O)OC(C)(C)CN1C(C)(C)C` (stereo unspecified): the TGI in the experiment on CAKI-1 renal, in the experiment with ACHN renal, in the experiment with MDA-N, in the experiment with OVCAR-8 ovarian, with HCC-2998 colon and in the experiment on TK-10 renal was over 100 µM throughout. For the same compound, the TGI with UACC-257 melanoma, with KM12 colon and with HT29 colon was over 100 µM throughout.

Take `CCN(C(=O)N[C@@H](C)C(=O)N[C@@H](Cc1ccccc1)C(=O)OC)c1ccccc1`: the TGI in the experiment on CAKI-1 renal, in the experiment on ACHN renal, in the experiment with MDA-N, in the experiment with OVCAR-8 ovarian, with HCC-2998 colon and in the experiment with TK-10 renal was over 100 µM throughout. Moreover, the TGI in the experiment with UACC-257 melanoma, in the experiment on KM12 colon and in the experiment on HT29 colon was over 100 µM throughout.

Regarding `C=C1C(=O)[C@@]23CC[C@@H]4[C@@]5(C)CCC[C@@]4(OC5=O)[C@@]2(C)CC[C@@H]1C3`, the TGI in the experiment with CAKI-1 renal is 2.32 µM; in the experiment on ACHN renal, 2.64 µM; in the experiment with MDA-N it was over 100 µM; in the experiment on OVCAR-8 ovarian, 8.54 µM; with HCC-2998 colon, 5.56 µM; with TK-10 renal, 2.44 µM. In addition, the TGI in the experiment with UACC-257 melanoma is 4.06 µM; with KM12 colon, 10.2 µM; in the experiment on HT29 colon, 10.6 µM.

For `O=C1/C(=C/c2ccc(Cl)cc2)CCCc2ccccc21`, the TGI in the experiment with CAKI-1 renal was over 100 µM; in the experiment with ACHN renal, 31.1 µM; in the experiment on MDA-N it was 33.3 µM; in the experiment on OVCAR-8 ovarian, 32.7 µM; with HCC-2998 colon it was 36.7 µM; with TK-10 renal, 58.7 µM. In addition, the TGI with UACC-257 melanoma worked out at 77.7 µM; with KM12 colon, 28.5 µM; in the experiment on HT29 colon it was 19.7 µM.

Consider `CCCCOCCOC1=C(Cl)C(=O)c2c(O)ccc(O)c2C1=O`, for which the TGI with CAKI-1 renal stood at 1.36 µM; in the experiment with ACHN renal, 1.1 µM; in the experiment with MDA-N, 0.766 µM; in the experiment on OVCAR-8 ovarian it was 2.56 µM; in the experiment with HCC-2998 colon, 6.01 µM; in the experiment with TK-10 renal, 1.81 µM. The TGI was 1.15 µM in the experiment on UACC-257 melanoma, 3.37 µM in the experiment on KM12 colon and 2.16 µM in the experiment on HT29 colon.

With `C=CCn1c(=O)ccn(/C(=C/C(=O)OCC)C(=O)OCC)c1=O`, the TGI turned out to be 4.19 µM with CAKI-1 renal; 13.9 µM in the experiment on ACHN renal; 31.3 µM in the experiment with MDA-N; 31.5 µM with OVCAR-8 ovarian; 31.8 µM in the experiment on HCC-2998 colon; 24.1 µM in the experiment with TK-10 renal. Moreover, the figures for the TGI in the experiment on UACC-257 melanoma, in the experiment on KM12 colon and with HT29 colon were 28.7 µM, 32.9 µM and 27.9 µM, respectively.

Consider `Cc1cc(C[C@H]2O[C@@H]3OC(C)(C)O[C@@H]3[C@H]3OC(C)(C)O[C@H]32)c2ccccc2n1`, for which the TGI in the experiment on CAKI-1 renal, in the experiment on ACHN renal, in the experiment on MDA-N, in the experiment with OVCAR-8 ovarian, with HCC-2998 colon and in the experiment on TK-10 renal was over 100 µM in each case. For the same compound, the TGI in the experiment on UACC-257 melanoma, in the experiment on KM12 colon and in the experiment with HT29 colon was over 100 µM in each case.

`O=C(O)c1cccc(S(=O)(=O)NN2C(=O)CSC2c2ccc(Cl)cc2Cl)c1` (stereo unspecified): the TGI in the experiment on CAKI-1 renal was over 100 µM; in the experiment on ACHN renal, over 100 µM; in the experiment with MDA-N it was over 100 µM; in the experiment with OVCAR-8 ovarian, 30.2 µM; with HCC-2998 colon, over 100 µM; with TK-10 renal, over 100 µM. The TGI with UACC-257 melanoma, with KM12 colon and in the experiment on HT29 colon was over 100 µM throughout.

For the compound `COC(=O)c1ccccc1CC1Cc2cccc(C)c2C1=O` (stereo unspecified), the TGI was over 100 µM in the experiment on CAKI-1 renal; over 100 µM with ACHN renal; over 100 µM in the experiment with MDA-N; over 100 µM in the experiment with OVCAR-8 ovarian; over 100 µM with HCC-2998 colon; 71.1 µM with TK-10 renal. For the same compound, the TGI amounted to 73.3 µM in the experiment on UACC-257 melanoma, 66.6 µM in the experiment on KM12 colon and 58.3 µM in the experiment on HT29 colon.

Consider `CCOc1c(OC)cc(-c2nc3n(n2)C(=O)C(CC)S3)cc1OC` (stereo unspecified), for which the TGI with CAKI-1 renal, in the experiment with ACHN renal, with MDA-N, in the experiment on OVCAR-8 ovarian, in the experiment with HCC-2998 colon and in the experiment on TK-10 renal was over 10 µM in each case. Further, the TGI in the experiment with UACC-257 melanoma, with KM12 colon and in the experiment on HT29 colon was over 10 µM each time.
